In assay [1] the target is T1, human plasmin (Homo sapiens, UniProt P00747). As to the kind of experiment: biochemical. As for the experimental part:
An inhibitor sample is dissolved in a 0.05M Tris-hydrochloric acid buffer solution (pH=7.4) to make the total volume of 400 μl. […] Then, 50 μl of a 0.2 casein unit/ml human plasmin is added and the mixture is incubated at a temperature of 37° C. for 4 minutes. Thereafter, the reaction is stopped by adding 50 μl of 50% acetic acid.
Thus, the concentration I50 (μmol) of the inhibitor sample, at which the absorbance is one half (i.e., 1/2) of that obtained in the absence of the inhibitor, is determined.

Assay [2] concerns the target T1, human plasmin. Kind of assay: Antiplasmin activity: inhibition of fibrin decomposition. Type of assay: biochemical. As for the experimental part:
(i) Determination of inhibition activity for fibrin decomposition
An inhibitor sample is dissolved in a 0.18M borate-physiological salt buffer solution (pH=7.4) to make the total volume to 600 μl. To this buffer solution, 200 μl of a 0.2% bovine fibrinogen, 100 μl of a 0.3 casein unit/ml human plasmin solution, and 100 μl of a 50 unit/ml bovine thrombin solution, all dissolved in the above-mentioned buffer, are added at a temperature of 37° C. in a constant temperature bath. Then, the dissolution time of the fibrin mass formed above is determined.

Assay [3] addresses T2, bovine thrombin (Bos taurus, UniProt P00735). Kind of assay: Antithrombin activity: inhibition of S-2238 decomposition. Type of assay: biochemical. Conditions: Table 2; S-2238 substrate, pH 8.3, 37° C.; read-out: Thrombin S-2238 (I50). Here is the method: (ii) Determination of inhibition activity for S-2238 decomposition
An inhibitor sample is dissolved in a 0.05M Tris-hydrochloric acid buffer solution (pH=8.3) to make a total volume of 400 μl. To this solution, 50 μl of a 0.2 mM S-2238 solution is added and the mixture is incubated at a temperature of 37° C. for 5 minutes in a constant temperature bath. Then, 50 μl of a 0.2 unit/ml bovine thrombin solution is added thereto and the absorbance, at 405 nm, of the p-nitroaniline formed per minute is determined at a temperature of 37° C. by using the so-called initial velocity method. Thus, the concentration I50 (μmol) of the inhibitor sample at which the absorbance is one half (i.e., 1/2) of that obtained in the absence of the inhibitor sample, is determined.

Assay [4] deals with T2, bovine thrombin. Kind of assay: Antithrombin activity: inhibition of fibrin formation from fibrinogen. Format: biochemical. As for the experimental part:
(i) Determination of inhibition activity against fibrin formation
An inhibitor sample is dissolved in a 0.18M borate-physiological salt buffer solution (pH=7.4) to make the total volume to 500 μl. To this solution, 400 μl of a 0.2% bovine fibrinogen solution and 100 μl of a 4 unit/ml bovine thrombin solution are added at a temperature of 37° C. in a constant temperature bath. Thus, a coagulation time is determined. The inhibitor concentration I50 (μmol), at which the coagulation time obtained in the absence of the inhibitor is extended twice, is determined.

Assay [5] addresses human plasma kallikrein (Homo sapiens, UniProt P03952). As to the kind of experiment: Anti-plasma kallikrein activity: inhibition of S-2302 decomposition. Type of assay: biochemical. Conditions: Table 2; S-2302 substrate, pH 7.8, 37° C.; read-out: Plasma Kallikrein S-2302 (I50).
Protocol: Determination of inhibition activity for S-2302 decomposition
An inhibitor sample is dissolved in a 0.05M Tris-hydrochloric acid buffer solution (pH=7.8) to make the total volume to 400 μl. To this solution, 50 μl of a 2 mM S-2302 solution is added and the mixture is incubated at a temperature of 37° C. for 5 minutes in a constant temperature bath. Then, 50 μl of a 0.12 unit/ml human plasma kallikrein is added and the mixture is incubated at a temperature of 37° C. for 5 minutes. Thereafter, 50 μl of 50% acetic acid is added to terminate the reaction. The absorbance of the p-nitroaniline formed in the reaction mixture is measured at 405 nm. Thus, the concentration I50 (μmol) of the inhibitor sample, at which the absorbance is one half (i.e., 1/2) of that obtained in the absence of the inhibitor sample, is determined.
In assay [6] the target is human urokinase (Homo sapiens, UniProt P00749). As to the kind of experiment: biochemical. The note with it: Table 2; S-2444 substrate, pH 8.8, 37° C.; read-out: Urokinase S-2444 (I50). Here is the method: Determination of inhibition activity for S-2444 decomposition
An inhibitor sample is dissolved in a 0.05M Tris-hydrochloric acid buffer solution (pH=8.8) to make the total volume to 400 μl. To this solution, 50 μl of a 1 mM S-2444 solution is added and the mixture is incubated at a temperature of 37° C. for 5 minutes in a constant temperature bath. Then, 50 μl of a 500 unit/ml human urokinase is added and the mixture is incubated at a temperature of 37° C. for 5 minutes. Thereafter, 50 μl of 50% acetic acid is added to terminate the reaction. The absorbance of the p-nitroaniline formed in the reaction mixture is measured at 405 nm. Thus, the concentration I50 (μmol) of the inhibitor sample, at which the absorbance is one half (i.e., 1/2) of that obtained in the absence of the inhibitor sample, is determined.

For assay [7], the target named is T3, bovine trypsin (Bos taurus, UniProt P00760).
T3 sequence (P00760 24-246): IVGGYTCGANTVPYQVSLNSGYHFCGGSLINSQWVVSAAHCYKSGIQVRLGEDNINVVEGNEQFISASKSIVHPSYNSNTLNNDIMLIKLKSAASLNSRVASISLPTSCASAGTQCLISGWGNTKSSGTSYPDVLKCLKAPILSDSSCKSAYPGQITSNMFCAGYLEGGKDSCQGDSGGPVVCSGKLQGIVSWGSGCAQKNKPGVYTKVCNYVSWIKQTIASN
As to the kind of experiment: Antitrypsin activity: inhibition of S-2238 decomposition. Conditions: Table 2; S-2238 substrate, pH 8.1, 37° C.; read-out: Trypsin S-2238 (I50). Format: biochemical.
Protocol: Determination of inhibition activity against S-2238 decomposition
An inhibitor sample is dissolved in a 0.05M Tris-imidazole buffer solution (pH=8.1) and 125 μl of a 1 mM S-2238 solution is added to make the total volume to 1.20 ml. The mixture is incubated at a temperature of 37° C. for 5 minutes in a constant temperature bath. To this mixture, 0.05 ml of bovine trypsin is added and the absorbance, at 405 nm, of the p-nitroaniline formed per minute is determined at a temperature of 37° C. by using the so-called initial velocity method. Thus, the concentration I50 (μmol) of the inhibitor sample, at which the absorbance is one half (i.e., 1/2) of that obtained in the absence of the inhibitor sample, is determined.

Setting [8] is: Table 2, concentration at which fibrin dissolution time is extended twice, pH 7.4, 37° C., read-out: Plasmin Fibrin (I50).

Structures can show the parent of a compound that is named as a salt.

Sequence of human plasma kallikrein (P03952 391-638 limits assumed): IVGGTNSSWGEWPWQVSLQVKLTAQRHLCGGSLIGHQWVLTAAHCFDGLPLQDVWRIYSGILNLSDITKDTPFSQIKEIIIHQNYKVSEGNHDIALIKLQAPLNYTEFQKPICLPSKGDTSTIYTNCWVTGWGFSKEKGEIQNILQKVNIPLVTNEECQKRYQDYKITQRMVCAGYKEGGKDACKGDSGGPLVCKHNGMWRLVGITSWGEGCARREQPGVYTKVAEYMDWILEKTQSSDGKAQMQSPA
Sequence of human plasma kallikrein (P03952 20-390 partner limits assumed): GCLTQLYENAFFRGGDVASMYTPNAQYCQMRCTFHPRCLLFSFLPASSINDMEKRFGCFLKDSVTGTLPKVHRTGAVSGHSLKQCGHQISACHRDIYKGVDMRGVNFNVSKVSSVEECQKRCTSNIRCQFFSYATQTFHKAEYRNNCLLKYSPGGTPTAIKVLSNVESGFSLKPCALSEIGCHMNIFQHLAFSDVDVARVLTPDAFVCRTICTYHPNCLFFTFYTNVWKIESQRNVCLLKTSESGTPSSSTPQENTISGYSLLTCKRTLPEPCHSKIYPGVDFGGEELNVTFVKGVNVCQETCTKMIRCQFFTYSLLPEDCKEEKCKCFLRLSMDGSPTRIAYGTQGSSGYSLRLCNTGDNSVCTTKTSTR
T1 sequence (P00747 581-810 limits assumed): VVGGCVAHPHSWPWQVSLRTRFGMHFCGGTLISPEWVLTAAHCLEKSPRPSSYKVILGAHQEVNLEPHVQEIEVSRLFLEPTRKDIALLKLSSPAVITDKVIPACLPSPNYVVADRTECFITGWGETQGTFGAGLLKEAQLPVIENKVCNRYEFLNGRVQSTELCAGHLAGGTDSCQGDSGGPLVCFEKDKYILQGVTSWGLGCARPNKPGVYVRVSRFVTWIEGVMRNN
T1 sequence (P00747 97-580 partner limits assumed): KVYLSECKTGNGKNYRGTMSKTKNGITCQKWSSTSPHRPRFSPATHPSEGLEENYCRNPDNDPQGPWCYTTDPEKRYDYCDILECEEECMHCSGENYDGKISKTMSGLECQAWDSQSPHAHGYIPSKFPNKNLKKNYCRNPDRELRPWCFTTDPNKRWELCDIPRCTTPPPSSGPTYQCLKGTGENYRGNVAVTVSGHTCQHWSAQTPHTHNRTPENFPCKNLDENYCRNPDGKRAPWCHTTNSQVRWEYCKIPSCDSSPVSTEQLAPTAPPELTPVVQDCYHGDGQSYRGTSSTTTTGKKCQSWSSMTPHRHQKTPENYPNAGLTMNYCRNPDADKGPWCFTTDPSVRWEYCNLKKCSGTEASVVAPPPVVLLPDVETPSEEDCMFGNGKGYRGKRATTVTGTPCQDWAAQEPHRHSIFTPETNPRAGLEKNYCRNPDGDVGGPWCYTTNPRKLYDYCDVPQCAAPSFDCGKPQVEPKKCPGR

As for `NC[C@H]1CC[C@H](C(=O)NC(Cc2ccc([N+](=O)[O-])cc2)C(=O)Nc2ccc(C(=O)c3ccccc3)cc2)CC1` (mixture of isomers) [Compound No. 31, N-(trans-4-aminomethylcyclohexylcarbonyl)-4-nitro-D,L-phenylalanine 4-benzoylanilide hydrochloride], the IC50 in assay [1] was 14000 nM; in assay [2], 3300 nM; in assay [3], greater than 100000 nM; in assay [4], greater than 100000 nM; in assay [5], 6000 nM; in assay [6], 3300 nM.

For `CC(=O)c1ccc(NC(=O)[C@H](Cc2ccc(OCc3ccc(Cl)cc3)cc2)NC(=O)[C@H]2CC[C@H](CN)CC2)cc1` [Compound No. 5, N-(trans-4-aminomethylcyclohexylcarbonyl)-4-(4-chlorobenzyloxy)-L-phenylalanine 4-acetylanilide], the IC50 in assay [1] (read-out: Plasmin S-2251 (I50)) was 900 nM; in assay [2] (setting [8]), 390 nM; in assay [7] it was 840 nM; in assay [5], 460 nM; in assay [6], 25000 nM.

Turning to `CC(=O)c1ccc(NC(=O)[C@H](Cc2ccc(OCc3ccc(F)cc3)cc2)NC(=O)[C@H]2CC[C@H](CN)CC2)cc1` [Compound No. 12], the IC50 worked out at 790 nM in assay [1] (read-out: Plasmin S-2251 (I50)), 410 nM in assay [2] (setting [8]), 840 nM in assay [5] and 11000 nM in assay [6].

`NC[C@H]1CC[C@H](C(=O)N[C@@H](Cc2ccc(OCc3ccccc3)cc2)C(=O)Nc2cccnc2)CC1` [Compound No. 16, N-(trans-4-aminomethylcyclohexylcarbonyl)-4-benzyloxy-L-phenylalanine 3-pyridylamide dihydrochloride]: the IC50 in assay [3] is greater than 400000 nM; in assay [4], greater than 500000 nM.

For `NCc1ccc(C(=O)N[C@@H](Cc2ccc(OCc3ccccc3)cc2)C(=O)NC2CCCCC2)cc1` [Compound No. 114, N-(4-aminomethylbenzoyl)-4-benzyloxy-L-phenylalanine cyclohexylamide hydrochloride], the IC50 in assay [1] (read-out: Plasmin S-2251 (I50)) was 3200 nM; in assay [2] (setting [8]), 1400 nM; in assay [7], 9500 nM; in assay [5] it was 40000 nM; in assay [6] it was greater than 100000 nM.

`CC(=O)c1ccc(NC(=O)[C@H](Cc2ccc(OCc3ccc(Br)cc3)cc2)NC(=O)[C@H]2CC[C@H](CN)CC2)cc1` [compound 17]: the IC50 in assay [1] (read-out: Plasmin S-2251 (I50)) worked out at 1500 nM; in assay [2] (setting [8]) it was 280 nM; in assay [5], 560 nM; in assay [6], 23000 nM.

As for `NC[C@H]1CC[C@H](C(=O)N[C@@H](Cc2ccc(OCc3ccccc3)cc2)C(=O)Nc2ccc(C(=O)c3ccccc3)cc2)CC1` [compound 19], the IC50 in assay [1] (read-out: Plasmin S-2251 (I50)) worked out at 1300 nM; in assay [2] (setting [8]) it was 280 nM; in assay [5], 1200 nM; in assay [6], 19000 nM.

Turning to `CC(=O)c1ccc(NC(=O)[C@H](Cc2ccc(OCc3ccc(Cl)c(Cl)c3)cc2)NC(=O)[C@H]2CC[C@H](CN)CC2)cc1` [compound 45], the IC50 in assay [1] (read-out: Plasmin S-2251 (I50)) came to 580 nM; in assay [2] (setting [8]) it was 91 nM; in assay [7], 840 nM; in assay [5], 460 nM; in assay [6], 70000 nM.

With `Cc1ccc(NC(=O)[C@H](Cc2ccc(OCc3ccccc3)cc2)NC(=O)c2ccc(CN)cc2)cc1` [compound 63], the IC50 is 5600 nM in assay [1] (read-out: Plasmin S-2251 (I50)); 1400 nM in assay [2] (setting [8]); greater than 50000 nM in assay [4]; 10000 nM in assay [7]; 24000 nM in assay [5]; greater than 100000 nM in assay [6].

With `Cc1ccc(NC(=O)[C@H](Cc2ccc(OCc3ccccc3)cc2)NC(=O)c2ccc(CN)cc2)cc1C` [compound 65], the IC50 in assay [1] (read-out: Plasmin S-2251 (I50)) was 2900 nM; in assay [2] (setting [8]), 1000 nM; in assay [4] it was greater than 50000 nM; in assay [7], 5000 nM; in assay [5] it was 22000 nM; in assay [6], greater than 200000 nM.

As to `NC[C@H]1CC[C@H](C(=O)N[C@@H](Cc2ccc(OCc3cccc(Cl)c3)cc2)C(=O)Nc2ccc(C(=O)c3ccccc3)cc2)CC1` [compound 67], the IC50 is 1100 nM in assay [1] (read-out: Plasmin S-2251 (I50)); 140 nM in assay [2] (setting [8]); greater than 20000 nM in assay [4]; 440 nM in assay [7]; 1200 nM in assay [5]; 40000 nM in assay [6].

Turning to `CC1CCC(NC(=O)C(Cc2ccc(OCc3cccc(Cl)c3)cc2)NC(=O)c2ccc(CN)cc2)CC1C` (stereo not drawn) [compound 103], the IC50 in assay [1] (read-out: Plasmin S-2251 (I50)) is 780 nM; in assay [2] (setting [8]) it was 120 nM; in assay [7] it was 1200 nM; in assay [5], 18000 nM; in assay [6] it was greater than 100000 nM.

`CC1CCC(NC(=O)C(Cc2ccc(OCc3ccc(F)cc3)cc2)NC(=O)c2ccc(CN)cc2)CC1C` (stereo not drawn) [compound 106]: the IC50 is 1400 nM in assay [1] (read-out: Plasmin S-2251 (I50)); 540 nM in assay [2] (setting [8]); greater than 50000 nM in assay [4]; 3000 nM in assay [7]; 19000 nM in assay [5]; greater than 150000 nM in assay [6].

For the compound `NCc1ccc(C(=O)NC(Cc2ccc(OCc3ccccc3)cc2)C(=O)NCc2ccc(F)cc2)cc1` (stereo not drawn) [compound 113], the IC50 was 8300 nM in assay [1] (read-out: Plasmin S-2251 (I50)); 1700 nM in assay [2] (setting [8]); greater than 50000 nM in assay [4]; 18000 nM in assay [7]; greater than 25000 nM in assay [5]; greater than 20000 nM in assay [6].

Turning to `CC(=O)c1ccc(NC(=O)[C@H](Cc2ccc(OCc3cc(Cl)ccc3Cl)cc2)NC(=O)[C@H]2CC[C@H](CN)CC2)cc1` [compound 125], the IC50 was 490 nM in assay [1] (read-out: Plasmin S-2251 (I50)); 130 nM in assay [2] (setting [8]); 800 nM in assay [7]; 380 nM in assay [5]; 47000 nM in assay [6].

In the case of `N=C(N)c1ccc(NC(=O)[C@H](Cc2ccc(OCc3ccccc3)cc2)NC(=O)[C@H]2CC[C@H](CN)CC2)cc1` [compound 126], the IC50 is 1500 nM in assay [1] (read-out: Plasmin S-2251 (I50)); 830 nM in assay [2] (setting [8]); greater than 200000 nM in assay [4]; 450 nM in assay [7]; 3500 nM in assay [5]; 6300 nM in assay [6].

Turning to `CC(=O)c1ccc(NC(=O)[C@H](Cc2ccc(OC(=O)OCc3ccccc3Br)cc2)NC(=O)[C@H]2CC[C@H](CN)CC2)cc1` [compound 144], the IC50 was 230 nM in assay [1] (read-out: Plasmin S-2251 (I50)); 51 nM in assay [2] (setting [8]); greater than 50000 nM in assay [4]; 950 nM in assay [7]; 370 nM in assay [5]; 43000 nM in assay [6].

(Values after patent publication US4895842A, “Phenylalanine derivative and proteinase inhibitor” (Shosuke Okamoto, priority 1985, dated 1990).)
